The record followed here is PubChem BioAssay AID489019 (Sanford-Burnham Center for Chemical Genomics, 2010).

A word on the IC50: it is the concentration that inhibits the measured activity by half.

The assay relates to HEK-293T NF-kB-Luc cytotoxicity, resazurin fluorescence, 15 h. The assay can be described thus: HEK-293T viability loss, cell-based, uHTS hits, cytotoxicity control for B/T-cell NF-kB inhibitor project, dose response (AID 489019).

Each structure is given as a SMILES string. The source made the active and inactive calls. The rule behind the calls is not given here.

As for `CC(=O)OC[C@]12CCC(C)=C[C@H]1O[C@@H]1[C@H](O)[C@@H](OC(C)=O)[C@@]2(C)[C@]12CO2`, the IC50 was > 80 µM (inactive).
